The values below come from patent US20190117994A1, “METHODS USEFUL FOR REMODELING MAXILLOFACIAL BONE USING LIGHT THERAPY AND A FUNCTIONAL APPLIANCE” (Biolux Research Ltd., priority 2010, published 2019).

Data set [1] deals with teeth and alveolar bone of an adult patient. Description: Example 3: orthodontic treatment with daily light and oral vitamin D3 supplementation. It is filed as in vivo. The conditions noted are these: passive (retention) phase, 2000 IU to 12,000 IU per day oral vitamin D3, light once per week at about 625 nm. Here is the method:
An adult patient is tested for Vitamin D3 blood serum levels at the same time as their routine orthodontic examination and records appointment. The patient's diagnosis is Class I mild crowding with 4 mm of crowding on the upper arch and 4 mm on the lower arch. An orthodontic treatment plan is formulated to include the installation of a fixed orthodontic appliance with some mild expansion of the upper and lower arches.
The patient self-administers oral oil-based vitamin D3 capsules of 6000 IU per day for 3 months to increase their vitamin D3 serum levels. Laboratory serum testing is optionally performed again after 3 months of vitamin D3 supplementation. The patient maintains or adjusts their oral dose of vitamin D3 based on their subsequent lab results.
Orthodontic treatment is started either after the 3 month period or anytime prior. The patient has conventional fixed orthodontic brackets, and bands placed on their teeth with an initial 0.016 inch NiTi wire tied in place with silcone ligatures. […]
At a passive state of orthodontic treatment, i.e., retention phase, a fixed retention orthodontic appliance is installed on the patient's teeth. […] The dosage can be determined based on vitamin D blood serum levels which can be measured periodically to determine dosing. […]

The conditions of data set [2]: daily oral supplement of 2,000 IU to 6,000 IU in adults, within 3 months; cited from earlier work.

On to `C=C1CC[C@H](O)C/C1=C/C=C1\CCC[C@]2(C)[C@@H]([C@H](C)CCCC(C)C)CC[C@@H]12` [vitamin D3], for which the “alveolar bone density around the teeth” value in data set [1] is reported as “increased”.
In the case of vitamin D, in data set [2], the “blood levels of vitamin D” value was 40 ng/mL.
